Laboratory results: paper PMC10746543, “Design principles for cyclin K molecular glue degraders” (Nature Chemical Biology, 2023)
Where “and” joins values, the source holds several entries; their conditions need not be identical. Equal entries are not always repeated. Where two headings read alike, the source gives them in different places.

How the values were obtained:
[1] = target: T1, CDK2–cyclin A (Homo sapiens, UniProt P24941); assay: Lanthascreen kinase binding assay, CDK2; conditions: for Lanthascreen signal, sheet CDK2: raw replicates
T1 construct: purchased Thermo Fisher
Procedure: Lanthascreen experiments were performed using commercially available reagents (Thermo Fisher) and according to the manufacturer’s instructions.

[2] = target: T2, CDK12–cyclin K and DDB1 (Homo sapiens, UniProt Q16531+Q9NYV4, K965R); assay: TR-FRET ternary complex formation assay (compound titration); assay type: binding
T2 construct: His6–CDK12 (a.a. 713–1,052); full-length or beta-propeller B domain deletion (ΔBPB: a.a. 396–705 deleted) constructs of His6–DDB1ΔBPB, StrepII–Avi–DDB1, or His6–Spy–DDB1; made in house; host or cells: Trichoplusia ni High Five insect cells (baculovirus)
T2 sequence (Q9NYV4 713-1052 K965R): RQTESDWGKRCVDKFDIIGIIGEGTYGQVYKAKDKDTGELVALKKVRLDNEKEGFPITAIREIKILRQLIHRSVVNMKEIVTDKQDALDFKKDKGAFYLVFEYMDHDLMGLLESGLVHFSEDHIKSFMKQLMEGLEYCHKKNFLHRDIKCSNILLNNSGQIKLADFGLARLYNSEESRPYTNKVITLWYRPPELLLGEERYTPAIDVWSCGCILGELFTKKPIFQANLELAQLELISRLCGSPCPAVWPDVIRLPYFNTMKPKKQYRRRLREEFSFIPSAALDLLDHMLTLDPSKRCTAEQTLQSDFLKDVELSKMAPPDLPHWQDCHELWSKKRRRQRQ
T2 sequence (O75909 1-267 partner): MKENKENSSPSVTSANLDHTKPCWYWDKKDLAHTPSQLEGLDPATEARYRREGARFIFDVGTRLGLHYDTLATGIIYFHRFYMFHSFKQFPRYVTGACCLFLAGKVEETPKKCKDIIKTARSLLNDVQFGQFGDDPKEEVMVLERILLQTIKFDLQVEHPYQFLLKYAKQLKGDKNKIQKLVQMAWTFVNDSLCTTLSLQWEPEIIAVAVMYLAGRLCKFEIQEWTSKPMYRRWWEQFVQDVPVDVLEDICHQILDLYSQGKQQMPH
T2 sequence (Q16531 whole entry): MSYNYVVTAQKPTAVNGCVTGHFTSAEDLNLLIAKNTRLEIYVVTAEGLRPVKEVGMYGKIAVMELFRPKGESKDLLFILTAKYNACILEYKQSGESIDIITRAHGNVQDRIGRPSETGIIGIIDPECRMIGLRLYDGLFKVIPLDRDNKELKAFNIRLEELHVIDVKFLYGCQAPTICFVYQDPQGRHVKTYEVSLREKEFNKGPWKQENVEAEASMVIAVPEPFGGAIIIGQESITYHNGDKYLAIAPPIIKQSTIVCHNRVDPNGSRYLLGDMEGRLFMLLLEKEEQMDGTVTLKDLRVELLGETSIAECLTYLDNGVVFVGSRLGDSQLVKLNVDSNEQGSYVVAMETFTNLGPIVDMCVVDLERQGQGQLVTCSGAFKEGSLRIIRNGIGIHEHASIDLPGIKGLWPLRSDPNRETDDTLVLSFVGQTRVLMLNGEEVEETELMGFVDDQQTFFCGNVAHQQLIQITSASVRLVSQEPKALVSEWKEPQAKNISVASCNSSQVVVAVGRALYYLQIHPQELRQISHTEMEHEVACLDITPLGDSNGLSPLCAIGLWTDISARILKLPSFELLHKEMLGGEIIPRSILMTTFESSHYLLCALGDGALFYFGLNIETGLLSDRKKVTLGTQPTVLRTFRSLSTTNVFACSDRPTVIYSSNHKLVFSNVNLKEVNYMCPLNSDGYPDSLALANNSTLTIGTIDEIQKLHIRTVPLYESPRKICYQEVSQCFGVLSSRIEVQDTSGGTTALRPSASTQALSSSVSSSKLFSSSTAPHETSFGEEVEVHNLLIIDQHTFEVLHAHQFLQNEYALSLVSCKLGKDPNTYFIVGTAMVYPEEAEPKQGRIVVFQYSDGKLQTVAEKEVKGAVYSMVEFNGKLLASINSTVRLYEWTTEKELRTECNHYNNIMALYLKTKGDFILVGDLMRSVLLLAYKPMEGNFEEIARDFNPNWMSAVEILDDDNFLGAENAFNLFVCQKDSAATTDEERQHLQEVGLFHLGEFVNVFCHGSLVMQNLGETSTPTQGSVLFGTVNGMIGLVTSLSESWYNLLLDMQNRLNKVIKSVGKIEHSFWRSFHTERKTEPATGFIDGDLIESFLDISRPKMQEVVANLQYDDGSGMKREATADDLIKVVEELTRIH
In short: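 Background fluorescence is reduced by reading 70 μs after excitation, and complex formation is followed as the 520:490 nm fluorescence ratio.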

Lanthascreen signal, sheet CDK2 ([1]; Compound 0.038147 nM, experiment r13-r23): 0.01291 and 0.01309
Lanthascreen signal, sheet CDK2 ([1]; Compound 0.038147 nM, experiment r48-r58): 0.01261 and 0.01224
Lanthascreen signal, sheet CDK2 ([1]; Compound 0.152588 nM, experiment r13-r23): 0.01309 and 0.01357
Lanthascreen signal, sheet CDK2 ([1]; Compound 0.152588 nM, experiment r48-r58): 0.01492 and 0.0157
Lanthascreen signal, sheet CDK2 ([1]; Compound 0.610352 nM, experiment r13-r23): 0.01337 and 0.01331
Lanthascreen signal, sheet CDK2 ([1]; Compound 0.610352 nM, experiment r48-r58): 0.01553 and 0.01443
Lanthascreen signal, sheet CDK2 ([1]; Compound 1.02544 nM, experiment r1-r11): 0.008871 and 0.008854
Lanthascreen signal, sheet CDK2 ([1]; Compound 3.15521 nM, experiment r1-r11): 0.01028 and 0.01056
Lanthascreen signal, sheet CDK2 ([1]; Compound 9.46563 nM, experiment r1-r11): 0.01086 and 0.009918
Lanthascreen signal, sheet CDK2 ([1]; Compound 9.76563 nM, experiment r13-r23): 0.01301 and 0.01353
Lanthascreen signal, sheet CDK2 ([1]; Compound 9.76563 nM, experiment r48-r58): 0.01491 and 0.01554
Lanthascreen signal, sheet CDK2 ([1]; Compound 31.5521 nM, experiment r1-r11): 0.008252 and 0.009758
Lanthascreen signal, sheet CDK2 ([1]; Compound 39.0625 nM, experiment r13-r23): 0.01344 and 0.01357
Lanthascreen signal, sheet CDK2 ([1]; Compound 39.0625 nM, experiment r48-r58): 0.01615 and 0.01531
Lanthascreen signal, sheet CDK2 ([1]; Compound 99.3891 nM, experiment r1-r11): 0.01148 and 0.009734
Lanthascreen signal, sheet CDK2 ([1]; Compound 156.25 nM, experiment r13-r23): 0.01338 and 0.01316
Lanthascreen signal, sheet CDK2 ([1]; Compound 156.25 nM, experiment r48-r58): 0.01495 and 0.01468
Lanthascreen signal, sheet CDK2 ([1]; Compound 315.521 nM, experiment r1-r11): 0.01013 and 0.01019
Lanthascreen signal, sheet CDK2 ([1]; Compound 625 nM, experiment r13-r23): 0.01286 and 0.01329
Lanthascreen signal, sheet CDK2 ([1]; Compound 625 nM, experiment r48-r58): 0.01515 and 0.01544
Lanthascreen signal, sheet CDK2 ([1]; Compound 2500 nM, experiment r13-r23): 0.01297 and 0.01246
Lanthascreen signal, sheet CDK2 ([1]; Compound 2500 nM, experiment r48-r58): 0.0142 and 0.01439
Lanthascreen signal, sheet CDK2 ([1]; Compound 3155.21 nM, experiment r1-r11): 0.01019 and 0.009543
Lanthascreen signal, sheet CDK2 ([1]; Compound 10000 nM, experiment r13-r23): 0.01011 and 0.01128
Lanthascreen signal, sheet CDK2 ([1]; Compound 10000 nM, experiment r48-r58): 0.01389 and 0.01345
Lanthascreen signal, sheet CDK2 ([1]; Compound 10002 nM, experiment r1-r11): 0.009534 and 0.01103
IC50 ([1]; Lanthascreen, average, Extended Data Fig. 8, read-out: CDK2 IC50): > 10000 nM
IC50 ([1]; Supplementary Table 2, read-out: Lanthascreen IC50 [nM] CDK2): > 10000 nM
TR-FRET signal ([2]; compound concentration 0.468 nM): 0.3047 and 0.3012
TR-FRET signal ([2]; compound concentration 2.16 nM): 0.3265 and 0.3171
TR-FRET signal ([2]; compound concentration 3.6 nM): 0.3554 and 0.3435
TR-FRET signal ([2]; compound concentration 4.68 nM): 0.2015 and 0.1931
TR-FRET signal ([2]; compound concentration 7.92001 nM): 0.4106 and 0.4108
TR-FRET signal ([2]; compound concentration 15.84 nM): 0.4953 and 0.4972
TR-FRET signal ([2]; compound concentration 21.6 nM): 0.3497 and 0.3693
TR-FRET signal ([2]; compound concentration 30.96 nM): 0.6975 and 0.7097
TR-FRET signal ([2]; compound concentration 36 nM): 0.6301 and 0.6713
TR-FRET signal ([2]; compound concentration 62.6401 nM): 1.033 and 1.024
TR-FRET signal ([2]; compound concentration 79.2001 nM): 1.054 and 1.091
TR-FRET signal ([2]; compound concentration 125.28 nM): 1.438 and 1.46
TR-FRET signal ([2]; compound concentration 158.4 nM): 1.569 and 1.639
TR-FRET signal ([2]; compound concentration 244.8 nM): 2.039 and 2.019
TR-FRET signal ([2]; compound concentration 309.6 nM): 2.287 and 2.2
TR-FRET signal ([2]; compound concentration 626.401 nM): 2.739 and 2.6898
TR-FRET signal ([2]; compound concentration 993.601 nM): 3.062 and 3.005
TR-FRET signal ([2]; compound concentration 1252.8 nM): 3.187 and 3.255
TR-FRET signal ([2]; compound concentration 2001.6 nM): 3.478 and 3.348
TR-FRET signal ([2]; compound concentration 2448 nM): 3.234 and 3.447
TR-FRET signal ([2]; compound concentration 9936.01 nM): 3.901 and 3.875
TR-FRET signal ([2]; compound concentration 20016 nM): 3.981 and 3.769
EC50 ([2]; in vitro complex formation, 50 nM CDK12–cyclin K, 100 nM DDB1, text and figures, read-out: TR-FRET EC50): 279 ± 12 nM
EC50 ([2]; sheet MOESM7, read-out: log TR-FRET EC50 (converted)): 279 nM
EC50 ([2]; source data sheet correlations, read-out: TR-FRET EC50): 279 nM
Structure (SMILES): Cc1ccc(C(=O)N2CSCC2C(=O)Nc2ncc(C)s2)o1 (centres unmarked) [dCeMM4]
